The IC50 is the concentration needed to halve the response being measured. Read a low IC50 as greater potency. For orientation: ΔTm means the change in melting temperature against a reference sample.

Experiment [1] addresses T1, Glucose-induced degradation protein 4 homolog (Homo sapiens, UniProt Q8IVV7).
T1 sequence (Q8IVV7 whole entry): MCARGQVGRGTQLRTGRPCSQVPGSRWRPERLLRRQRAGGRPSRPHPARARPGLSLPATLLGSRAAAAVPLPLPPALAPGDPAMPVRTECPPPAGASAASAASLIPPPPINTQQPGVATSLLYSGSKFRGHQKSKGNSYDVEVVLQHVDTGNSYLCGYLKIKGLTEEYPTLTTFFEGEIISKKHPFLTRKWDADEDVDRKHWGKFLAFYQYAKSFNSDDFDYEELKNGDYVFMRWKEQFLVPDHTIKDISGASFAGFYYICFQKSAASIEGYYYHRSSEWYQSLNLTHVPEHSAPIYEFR
The experiment can be described thus: Inhibition of GID4 (124 to 289) (unknown origin) expressed in Escherichia coli BL21(DE3) using PGLWKS-FITC peptide by competitive-fluorescence polarization binding assay. For orientation: Polarisation of emitted light reports the rotation of a fluorescent probe.

The target of experiment [2] is T2, Glucose-induced degradation protein 4 homolog (Homo sapiens) (UniProt Q8IVV7).
T2 sequence (whole entry): T1 sequence (Q8IVV7 whole entry)
To be noted: HEK293, dose 50.0 µM, time 10.0 min.

The target of experiment [3] is T2, Glucose-induced degradation protein 4 homolog (Homo sapiens).
Description: Binding affinity to GID4 (124 to 289) (unknown origin) expressed in Escherichia coli BL21(DE3) assessed as change in melting temperature by differential scanning fluorimetry

Each structure is given as a SMILES string.

For `CC1CN=C(Nc2cccc(F)c2)S1` (configuration not stated), the IC50 in experiment [1] came out at 264 µM.

Turning to `CNC(=O)[C@H](CCc1ccccc1)NC(=O)[C@H](NC(=O)CNCc1ccc(OC)cc1OC)c1cccs1`, the values for the ΔTm in experiment [2] and in experiment [3] were 3.8 °C and 16 °C, respectively. Consider `CC1CN=C(Nc2ccc(N(C)C)cc2)S1` (configuration not stated), for which the ΔTm in experiment [3] worked out at 3.1 °C.

Turning to `CC1CN=C(Nc2ccc(F)cc2F)S1` (configuration not stated), the ΔTm in experiment [3] was 0.7 °C. The same measure, in the same setting: the result for `O=C(O)c1ccc(-c2ccc(Cl)cc2)o1` reads over 1 °C.

Turning to `Fc1ccc(C2NCCc3sccc32)cc1` (configuration not stated), the ΔTm in experiment [3] is 3.8 °C. Still for that read-out and setting: the figure for `c1cncc(C2NCCc3sccc32)c1` (configuration not stated) is 2.5 °C; for `COc1ccc(C2NCCc3sccc32)cc1` (racemic) it is 4.5 °C; for `CCOc1ccc(NC2=NCC(C)S2)cc1` (configuration not stated) it is 0.8 °C. The same measure, in the same setting: the result for `CC1CN=C(Nc2ccc(F)cc2)S1` (racemic) reads 3.2 °C; that for `CNC(=O)C1c2ccccc2CN1C(=O)[C@@H](Cc1c(C)[nH]c2ccccc12)NC(=O)CNCCOc1ccc(C)cc1` (some centres not stated), 0.1 °C. For `c1cc2c(s1)CCNC2`, the shift in melting temperature (ΔTm) in experiment [3] came to 1.9 °C. Same read-out and setting: the result for `CNC(=O)[C@H](CC1CCCCC1)NC(=O)[C@@H](NC(=O)[C@H]1NC[C@@H]1c1ccccc1)c1ccsc1` reads 4.5 °C; that for `N#Cc1ccc(C2NCCc3sccc32)cc1` (configuration not stated), 2 °C; that for `FC(F)(F)c1ccc(C2NCCc3sccc32)cc1` (configuration not stated), 2.7 °C. With `Nc1ccccc1C1NCCc2sccc21` (configuration not stated), in experiment [3], the ΔTm is 2.8 °C. As to `FC(F)(F)c1ccccc1C1NCCc2sccc21` (configuration not stated), in experiment [3], the ΔTm came out at 5.3 °C. Same read-out and setting: the figure for `c1ccc(C2NCCc3sccc32)cc1` (configuration not stated) is 7.9 °C. On the same count and under the same terms, the figure for `Brc1ccc(C2NCCc3sccc32)cc1` (configuration not stated) is 4.2 °C; for `Clc1ccc(CNCc2cccnc2)cc1` it is over 1 °C. Turning to `CC(=O)c1cccc(NC2=NCC(C)S2)c1` (configuration not stated), the ΔTm in experiment [3] came out at 3.2 °C. Same read-out and setting: the result for `O=[N+]([O-])c1ccccc1C1NCCc2sccc21` (configuration not stated) reads 4.1 °C; that for `CC1(C)CN=C(Nc2ccc(F)cc2)S1`, 1.2 °C. Take `COc1cccc(C2NCCc3sccc32)c1` (configuration not stated): in experiment [3], the ΔTm was 7.6 °C. `CC(=O)Oc1ccc(C2NCCc3sccc32)cc1` (configuration not stated): the ΔTm in experiment [3] came out at 3.3 °C.

Regarding `OCc1ccc(C2NCCc3sccc32)cc1` (configuration not stated), the ΔTm in experiment [3] is 4.4 °C. The same measure, in the same setting: the result for `Clc1ccc(C2NCCc3sccc32)cc1` (configuration not stated) reads 5.1 °C. On the same count and under the same terms, the result for `NCc1ccccc1Oc1ccccc1` reads over 1 °C; that for `Clc1ccccc1C1NCCc2sccc21` (configuration not stated), 5 °C; that for `N#Cc1cccc(C2NCCc3sccc32)c1` (configuration not stated), 3.9 °C.

For the compound `CC(=O)c1ccc(NC2=NCC(C)S2)cc1` (configuration not stated), in experiment [3], the ΔTm is -0.1 °C. Still for that read-out and setting: the figure for `Nc1ccc(C2NCCc3sccc32)cc1` (configuration not stated) is 7.1 °C; for `COc1ccc(NC2=NCC(C)S2)cc1` (configuration not stated) it is 3.1 °C; for `CC1SC(Nc2ccc(F)cc2)=NC1=O` (configuration not stated) it is 0.6 °C.

For the compound `c1ccc(NC2=NCCS2)cc1`, in experiment [3], the ΔTm came out at 2.5 °C.

Regarding `Oc1cccc(C2NCCc3sccc32)c1` (configuration not stated), the ΔTm in experiment [3] stood at 6.1 °C. On the same count and under the same terms, the result for `O=[N+]([O-])c1cccc(C2NCCc3sccc32)c1` (configuration not stated) reads 4.9 °C; that for `CC1CSC(Nc2cccc3ccccc23)=N1` (configuration not stated), 2.5 °C; that for `C[C@H](N)c1ccc(Cl)cc1`, over 1 °C. Take `COc1ccc2c(c1)CCCC2c1ccccc1` (configuration not stated): the ΔTm in experiment [3] came to 6.4 °C.

For `COc1cccc2c1CCNC2c1ccccc1` (configuration not stated), the ΔTm in experiment [3] was determined as 4.4 °C.

The values are drawn from ChEMBL document CHEMBL5104179, “Discovery and Structural Characterization of Small Molecule Binders of the Human CTLH E3 Ligase Subunit GID4” (J Med Chem, 2022).
